From patent publication US20260200928A1, “THERAPEUTIC COMPOUNDS” (Sanofi, priority 2022, published 2026)

These compounds were tested against T1, human IL-17A (Homo sapiens, UniProt Q16552) (assay: IL-17A AlphaLISA competition assay (block of IL-17A binding to its receptor IL-17RA)). Conditions: mean IC50 (n≥2), block of IL-17A binding to IL-17RA.
T1 construct: purchased R&D Systems 7955-IL/CF
T1 sequence (Q16552 24-155): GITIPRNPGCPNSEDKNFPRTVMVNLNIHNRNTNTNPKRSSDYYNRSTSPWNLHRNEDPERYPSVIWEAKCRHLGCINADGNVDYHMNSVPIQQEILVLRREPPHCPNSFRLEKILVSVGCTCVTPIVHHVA
Outline: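 Bead-based AlphaLISA competition in PBS with 0.05% Tween-20 and 0.1% BSA: compound first meets human IL-17A (7.5 nM stock) for 30 min, then IL-17RA/Fc (5 nM stock) for 90 min, all at room temperature, before acceptor/donor bead capture. IC50 fitted 4-parameter, DMSO and 4 μM reference inhibitor as controls; at least duplicate.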

First: C[C@@H]1CN(Cc2ccnc(NC(=O)[C@@H](NC(=O)c3ccnn3C3CC3)C(C3CC3)C3CC3)c2)C(=O)N1 [Example 34, 1-cyclopropyl-N—((S)-1,1-dicyclopropyl-3-((4-(((R)-4-methyl-2-oxoimidazolidin-1-yl)methyl)pyridin-2-yl)amino)-3-oxopropan-2-yl)-1H-pyrazole-5-carboxamide]
Second: C[C@H](OC(C)(C)C)[C@H](NC(=O)c1nonc1C1CC1)C(=O)Nc1cc(CN2C[C@@H](C(F)(F)F)NC2=O)ccn1 [Example 116, N-((2S,3S)-3-(tert-butoxy)-1-oxo-1-((4-(((S)-2-oxo-4-(trifluoromethyl)-imidazolidin-1-yl)methyl)pyridin-2-yl)amino)butan-2-yl)-4-cyclopropyl-1,2,5-oxadiazole-3-carboxamide]
The IC50 of the first is 10-fold lower: 1470 nM for the first, 15400 nM for the second. The first is the more potent here.

First: Cn1nccc1C(=O)NC(C(=O)Nc1cc(Cc2ccc(=O)n(C)c2)ccn1)C1CCC(F)(F)CC1 (stereo not drawn) [Example 52, N-(1-(4,4-difluorocyclohexyl)-2-((4-((1-methyl-6-oxo-1,6-dihydro-pyridin-3-yl)methyl)pyridin-2-yl)amino)-2-oxoethyl)-1-methyl-1H-pyrazole-5-carboxamide]
Second: COC[C@H](c1ccnc(NC(=O)C(NC(=O)c2nonc2C)C2CCC(C)(F)CC2)c1)N1C[C@@H](C(F)(F)F)NC1=O (single isomer, unassigned) [Example 298]
The IC50 of the first is 280-fold higher: 23900 nM for the first, 85 nM for the second.

Compared with `Cn1nccc1C(=O)NC(C(=O)Nc1cc(Cc2ccn(C)c(=O)c2)ccn1)C1CCC(F)(F)CC1` (stereo not drawn) [Example 54, N-(1-(4,4-difluorocyclohexyl)-2-((4-((1-methyl-2-oxo-1,2-dihydro-pyridin-4-yl)methyl)pyridin-2-yl)amino)-2-oxoethyl)-1-methyl-1H-pyrazole-5-carboxamide], `COCC(c1ccnc(NC(=O)C(NC(=O)C(F)c2ccccc2)C2CCC(C)CC2)c1)N1CC(C(F)(F)F)NC1=O` [Example 254, 2-fluoro-N-((S)-2-((4-((S)-2-methoxy-1-((S)-2-oxo-4-(trifluoromethyl)-imidazolidin-1-yl)ethyl)pyridin-2-yl)amino)-1-((1r,4S)-4-methylcyclohexyl)-2-oxoethyl)-2-phenylacetamide] is 62-fold lower in IC50: 4760 nM for the first, 77 nM for the second. The second is the more potent here.

`Cn1nccc1C(=O)N[C@H](C(=O)Nc1cc(CN2C[C@@H](C(F)(F)F)NC2=O)ccn1)C1CCC(F)(F)CC1` [Example 9, N-((S)-1-(4,4-difluorocyclohexyl)-2-oxo-2-((4-(((S)-2-oxo-4-(trifluoromethyl)imidazolidin-1-yl)methyl)pyridin-2-yl)amino)ethyl)-1-methyl-1H-pyrazole-5-carboxamide] and “N-((S)-1-(4,4-difluorocyclohexyl)-2-oxo-2-((4-(2-((S)-2-oxo-4-(trifluoromethyl)imidazolidin-1-yl)propan-2-yl)pyridin-2-yl)amino)ethyl)-1-isopropyl-1H-pyrazole-5-carboxamide [Example 175]” are within 1.5-fold of each other in IC50: 422 nM for the first, 384 nM for the second.

Going from `COC[C@H](c1ccnc(NC(=O)[C@@H](NC(=O)C(C)c2cccc(C#N)c2)C2CCC(F)(F)CC2)c1)N1C[C@@H](C(F)(F)F)NC1=O` (stereo partly drawn) [Example 205, 2-(3-cyanophenyl)-N-((S)-1-(4,4-difluorocyclohexyl)-2-((4-((S)-2-methoxy-1-((S)-2-oxo-4-(trifluoromethyl)imidazolidin-1-yl)ethyl)pyridin-2-yl)amino)-2-oxoethyl) propanamide] to `CCC(c1ccnc(NC(=O)C(NC(=O)c2nonc2C2CC2)C2CCC(C)CC2)c1)N1CC(C(F)(F)F)NC1=O` [Example 257, 4-cyclopropyl-N-((S)-1-((1r,4S)-4-methylcyclohexyl)-2-oxo-2-((4-((R)-1-((S)-2-oxo-4-(trifluoromethyl)imidazolidin-1-yl)propyl)pyridin-2-yl)amino)ethyl)-1,2,5-oxadiazole-3-carboxamide], the IC50 falls from 347 nM to 32 nM (11-fold).

Going from `CC(C)(C)OC(=O)N[C@H](C(=O)Nc1cc(CN2C[C@@H](C(F)(F)F)NC2=O)ccn1)[C@H]1CC[C@H](C)CC1` [Example 1, Tert-butyl ((S)-1-((1r,4S)-4-methylcyclohexyl)-2-oxo-2-((4-(((S)-2-oxo-4-(trifluoro-methyl)imidazolidin-1-yl)methyl)pyridin-2-yl)amino)ethyl)carbamate] to `[2H]C(c1ccnc(NC(=O)[C@@H](NC(=O)c2ccnn2C)[C@H]2CC[C@H](C)CC2)c1)N1C[C@@H](C(F)(F)F)NC1=O` (stereo partly drawn) [Example 232, 1-Methyl-N-((1S)-1-((1r,4S)-4-methylcyclohexyl)-2-oxo-2-((4-(((S)-2-oxo-4-(trifluoromethyl)imidazolidin-1-VI)methyl-d)pyridin-2-yl)amino)ethyl)-1H-pyrazole-5-carboxamide], the IC50 falls from 148 nM to 53 nM (2.8-fold). The second is the more potent here.

Compared with `CC(C)(C)OC(=O)N[C@H](C(=O)Nc1cc(C(NC(=O)CCC(F)(F)F)C2CC2)ccn1)C1CCC(F)(F)CC1` (single isomer, unassigned; diastereomer 1) [Example 72], `Cn1nccc1C(=O)N[C@@H](COC(C)(C)C(F)(F)F)C(=O)Nc1cc(CN2C[C@@H](C(F)(F)F)NC2=O)ccn1` [Example 275, 1-methyl-N-((S)-1-oxo-1-((4-(((S)-2-oxo-4-(trifluoromethyl)imidazolidin-1-yl)methyl)pyridin-2-yl)amino)-3-((1,1,1-trifluoro-2-methylpropan-2-yl)oxy)propan-2-yl)-1H-pyrazole-5-carboxamide] is 1.7-fold higher in IC50: 547 nM for the first, 946 nM for the second. The first is the more potent here.

First: COCC(NC(=O)CCC(F)(F)F)c1ccnc(NC(=O)[C@@H](NC(=O)OC(C)(C)C)C2CCC(F)(F)CC2)c1 (single isomer, unassigned) [Example 132]
Second: Cn1nccc1C(=O)N[C@H](C(=O)Nc1cc(CN2C[C@@H](C(F)(F)F)NC2=O)ccn1)C(C1CC1)C1CC1 [Example 15, N-((S)-1,1-dicyclopropyl-3-oxo-3-((4-(((S)-2-oxo-4-(trifluoromethyl)imidazolidin-1-yl)methyl)pyridin-2-yl)amino)propan-2-yl)-1-methyl-1H-pyrazole-5-carboxamide]
The IC50 of the first is 38-fold higher: 7700 nM for the first, 201 nM for the second. The second is the more potent here.

First: CCn1nccc1C(=O)NC(C(=O)Nc1cc([C@@H](COC)N2C[C@@H](C(F)(F)F)NC2=O)ccn1)C1CCC(F)CC1 (single isomer, unassigned) [Example 280]
Second: COCC(NC(=O)CCC(F)(F)F)c1ccnc(NC(=O)[C@@H](NC(=O)c2ccnn2CC2CC2)C2CCC(F)(F)CC2)c1 (single isomer, unassigned) [Example 142]
The IC50 of the first is 3.1-fold lower: 65 nM for the first, 203 nM for the second. The first is the more potent here.

Going from `CC(C)n1nccc1C(=O)N[C@H](C(=O)Nc1cc(CN2C[C@@H](C(F)(F)F)NC2=O)c(F)cn1)[C@H]1CC[C@H](C)CC1` [Example 63, N-((S)-2-((5-fluoro-4-(((S)-2-oxo-4-(trifluoromethyl)-imidazolidin-1-yl)methyl)-pyridin-2-yl)amino)-1-((1r,4S)-4-methylcyclo-hexyl)-2-oxoethyl)-1-isopropyl-1H-pyrazole-5-carboxamide] to `COC[C@H](c1ccnc(NC(=O)[C@@H](NC(=O)c2nocc2C(C)C)C2CCC(F)(F)CC2)c1)N1C[C@@H](C(F)(F)F)NC1=O` [Example 188, N-((S)-1-(4,4-difluorocyclohexyl)-2-((4-((S)-2-methoxy-1-((S)-2-oxo-4-(trifluoromethyl)imidazolidin-1-yl)ethyl)pyridin-2-yl)amino)-2-oxoethyl)-4-isopropylisoxazole-3-carboxamide], the IC50 falls from 330 nM to 31 nM (11-fold).

Going from `COC[C@H](c1ccnc(NC(=O)[C@H](COC(C)(C)C(F)(F)F)NC(=O)c2ccnn2C)c1)N1C[C@@H](C(F)(F)F)NC1=O` [Example 271, N-((S)-1-((4-((S)-2-methoxy-1-((S)-2-oxo-4-(trifluoromethyl)imidazolidin-1-yl)ethyl)pyridin-2-yl)amino)-1-oxo-3-((1,1,1-trifluoro-2-methylpropan-2-yl)oxy)propan-2-yl)-1-methyl-1H-pyrazole-5-carboxamide] to `O=C(CCC(F)(F)F)NC(c1ccnc(NC(=O)[C@@H](NC(=O)c2nonc2C2CC2)C2CCC(F)(F)CC2)c1)C1CC1` (stereo partly drawn) [Example 96, 4-Cyclopropyl-N-((1S)-2-((4-(cyclopropyl(4,4,4-trifluorobutanamido)-methyl)pyridin-2-yl)amino)-1-(4,4-difluorocyclohexyl)-2-oxoethyl)-1,2,5-oxadiazole-3-carboxamide], the IC50 rises from 36 nM to 96 nM (2.7-fold).

Compared with `COC[C@H](c1ccnc(NC(=O)C(NC(=O)c2nonc2C)C2CCC(F)CC2)c1)N1C[C@@H](C(F)(F)F)NC1=O` (single isomer, unassigned) [Example 287], `COCC(c1ccnc(NC(=O)C(NC(=O)C(F)(F)c2ccc(C)cc2)C2CCC(C)CC2)c1)N1CC(C(F)(F)F)NC1=O` (single isomer, unassigned) [Example 149] is 2.3-fold higher in IC50: 47 nM for the first, 108 nM for the second. The first is the more potent here.

Compared with `CCc1conc1C(=O)N[C@H](C(=O)Nc1cc([C@@H](COC)N2C[C@@H](C(F)(F)F)NC2=O)ccn1)C1CCCC(F)(F)C1` (single isomer, unassigned) [Example 304], `C[C@@H](OC(C)(C)C)[C@@H](NC(=O)OCc1ccccc1)C(=O)Nc1cc(CN2C[C@@H](C(F)(F)F)NC2=O)ccn1` [Example 100, Benzyl ((2R,3R)-3-(tert-butoxy)-1-oxo-1-((4-(((S)-2-oxo-4-(trifluoromethyl)imidazolidin-1-yl)methyl)pyridin-2-yl)amino)butan-2-yl)carbamate] is 670-fold higher in IC50: 26 nM for the first, 17400 nM for the second.

`CCc1nocc1C(=O)N[C@H](C(=O)Nc1cc([C@@H](COC)N2C[C@@H](C(F)(F)F)NC2=O)ccn1)C1CCC(F)(F)CC1` [Example 198, N-((S)-1-(4,4-difluorocyclohexyl)-2-((4-((S)-2-methoxy-1-((S)-2-oxo-4-(trifluoromethyl)imidazolidin-1-yl)ethyl)pyridin-2-yl)amino)-2-oxoethyl)-3-ethylisoxazole-4-carboxamide] was tested, and the IC50 was 47 nM.
